Data reported in ChEMBL document CHEMBL1201862, “PubChem BioAssay data set” (2004).
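How tested: cells in 96-well plates exposed to compound for 48 hours at five concentrations. GI50: concentration for 50% inhibition of growth.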 The source made the active and inactive calls. Rule as the data show it: active = GI50 up to about 1.1 µM and inactive = higher.

How the values were obtained:
Test in all cases: DTP human tumour cell line panel, 48 h
786-0 = test system: 786-0
CCRF-CEM = test system: CCRF-CEM
DU-145 = test system: DU-145
HCT-116 = test system: HCT-116
HT-29 = test system: HT-29
LOX IMVI = test system: LOX IMVI
M14 = test system: M14
Malme-3M = test system: Malme-3M
NCI-H23 = test system: NCI-H23
NCI-H460 = test system: NCI-H460
OVCAR-4 = test system: OVCAR-4
OVCAR-8 = test system: OVCAR-8
SF-295 = test system: SF-295
SK-MEL-28 = test system: SK-MEL-28
SK-MEL-2 = test system: SK-MEL-2
SK-OV-3 = test system: SK-OV-3
T47D = test system: T47D
TK-10 = test system: TK-10
U-251 = test system: U-251
SR = test system: SR

Row | SMILES | GI50 (786-0) | GI50 (CCRF-CEM) | GI50 (DU-145) | GI50 (HCT-116) | GI50 (HT-29) | GI50 (LOX IMVI) | GI50 (M14) | GI50 (Malme-3M) | GI50 (NCI-H23) | GI50 (NCI-H460) | GI50 (OVCAR-4) | GI50 (OVCAR-8) | GI50 (SF-295) | GI50 (SK-MEL-28) | GI50 (SK-MEL-2) | GI50 (SK-OV-3) | GI50 (T47D) | GI50 (TK-10) | GI50 (U-251) | GI50 (SR)
1 | COc1ccccc1NC(=S)N/N=C(/C)c1ccccn1 | < 0.0123 µM (active) | < 0.01 µM (active) | 1.28 µM (inactive) | < 0.01 µM (active) | < 0.01 µM (active) | < 0.01 µM (active) | < 0.01 µM (active) | 0.0789 µM (active) | < 0.0185 µM (active) | < 0.0132 µM (active) | 0.184 µM (active) | 0.0112 µM (active) | 0.0771 µM (active) | 1.71 µM (inactive) | 7.5 µM (inactive) | < 0.0213 µM (active) | < 0.01 µM (active) | 0.0644 µM (active) | < 0.0172 µM (active) | 
2 | CC(C(O)Cc1ccccc1)N(C)/N=N/c1ccc([N+](=O)[O-])cc1 (centres undefined) | 18.5 µM (inactive) | 29.6 µM (inactive) | 27 µM (inactive) | 16.4 µM (inactive) | 18.6 µM (inactive) |  | 16.8 µM (inactive) | 22.2 µM (inactive) | 20.1 µM (inactive) | 15.2 µM (inactive) | 29.9 µM (inactive) | 17.6 µM (inactive) | 19.8 µM (inactive) | 18 µM (inactive) | 16.9 µM (inactive) | 22.3 µM (inactive) | 23.8 µM (inactive) | 22.5 µM (inactive) | 17.7 µM (inactive) | 
3 | COC(=O)C1=C(C)C=C(N2CCOCC2)C(C(=O)OC)C1c1ccccc1 (centres undefined) | > 10 µM (inactive) | > 10 µM (inactive) | > 10 µM (inactive) | > 10 µM (inactive) | > 10 µM (inactive) | > 10 µM (inactive) | > 10 µM (inactive) | > 10 µM (inactive) | > 10 µM (inactive) | > 10 µM (inactive) | > 10 µM (inactive) | > 10 µM (inactive) | > 10 µM (inactive) | > 10 µM (inactive) | > 10 µM (inactive) | > 10 µM (inactive) | > 10 µM (inactive) | > 10 µM (inactive) | > 10 µM (inactive) | 
4 | COc1ccc(/N=N/C(=NNC(=O)c2ccc(C)cc2)c2ccc(N(C)C)cc2)cc1 | 39.1 µM (inactive) | 14 µM (inactive) | 25.1 µM (inactive) | 34.4 µM (inactive) | 30.3 µM (inactive) | 34.8 µM (inactive) | 43.1 µM (inactive) | 34.6 µM (inactive) | 26.4 µM (inactive) | 39.7 µM (inactive) | 31.8 µM (inactive) | 40.3 µM (inactive) | 28.4 µM (inactive) | > 59.7 µM (inactive) | 50.8 µM (inactive) | 31.8 µM (inactive) |  | > 100 µM (inactive) | 63.7 µM (inactive) | 23.1 µM (inactive)
5 | CC(=O)OCC1OC(n2c(Br)nc3c2c(=O)n(C)c(=O)n3C)C(OC(C)=O)C1OC(C)=O (centres undefined) | 89.9 µM (inactive) |  | 38.2 µM (inactive) | 35.1 µM (inactive) | 43.8 µM (inactive) | 43.2 µM (inactive) | 77.1 µM (inactive) | > 100 µM (inactive) | 77.3 µM (inactive) | 84.3 µM (inactive) | 27.5 µM (inactive) | 42 µM (inactive) | > 100 µM (inactive) | > 100 µM (inactive) |  | > 100 µM (inactive) | > 100 µM (inactive) | > 100 µM (inactive) | 39.8 µM (inactive) | 19.9 µM (inactive)
6 | [N-]=[N+]=C(C(=O)OCC#CCOC(=O)C(=[N+]=[N-])S(=O)(=O)c1ccccc1)S(=O)(=O)c1ccccc1 | > 10 µM (inactive) | > 10 µM (inactive) | > 10 µM (inactive) | > 10 µM (inactive) | > 10 µM (inactive) | > 10 µM (inactive) | > 10 µM (inactive) | > 10 µM (inactive) | > 10 µM (inactive) | > 10 µM (inactive) | > 10 µM (inactive) | > 10 µM (inactive) | > 10 µM (inactive) | > 10 µM (inactive) | > 10 µM (inactive) | > 10 µM (inactive) | > 10 µM (inactive) | > 10 µM (inactive) | > 10 µM (inactive) | 
7 | CC(=O)C(C(=O)c1ccc(C)cc1)[C@@H]1OC(C)(C)O[C@@H]1[C@H]1COC(C)(C)O1 (some centres undefined) | 6.4 µM (inactive) | 1.27 µM (inactive) | 7.74 µM (inactive) | 3.72 µM (inactive) | 5.21 µM (inactive) | 6.43 µM (inactive) | 11.3 µM (inactive) | 15.9 µM (inactive) | 9.53 µM (inactive) | 25.1 µM (inactive) | 4 µM (inactive) | 7.26 µM (inactive) | 37.7 µM (inactive) | 20.8 µM (inactive) | 8.99 µM (inactive) | 51.2 µM (inactive) | 11.4 µM (inactive) | 30.3 µM (inactive) | 6.41 µM (inactive) | 
8 | CCCC(Sc1nc(N)nc2nc[nH]c12)C(=O)O (centres undefined) | 92.5 µM (inactive) | 81.5 µM (inactive) | 57.9 µM (inactive) | 42.1 µM (inactive) | 78.5 µM (inactive) | 34.5 µM (inactive) | 53.2 µM (inactive) | > 100 µM (inactive) | > 100 µM (inactive) | 67 µM (inactive) | > 100 µM (inactive) | 56.2 µM (inactive) | 59.7 µM (inactive) | > 100 µM (inactive) | > 100 µM (inactive) | 58.3 µM (inactive) | > 100 µM (inactive) | 26.6 µM (inactive) | > 100 µM (inactive) | 
9 | NCCCN(CCCCN(CCCN)Cc1ccccc1)Cc1ccccc1 | 23.1 µM (inactive) | 30.3 µM (inactive) | 42.2 µM (inactive) | 30.8 µM (inactive) | 17.3 µM (inactive) | 19.3 µM (inactive) | 41.6 µM (inactive) | 33.3 µM (inactive) | 42.2 µM (inactive) | 15.3 µM (inactive) | 28.6 µM (inactive) | 49.5 µM (inactive) | 69 µM (inactive) | > 100 µM (inactive) |  | 62.5 µM (inactive) | > 100 µM (inactive) | > 100 µM (inactive) | 42.3 µM (inactive) | 
10 | COc1cc(-c2coc3c(OC)c(OC4OC(COC5OC(C)C(O)C(O)C5O)C(O)C(O)C4O)c(OC)c(O)c3c2=O)cc(C)c1O (centres undefined) | 0.178 µM (active) | 5.93 µM (inactive) | 19.6 µM (inactive) | 0.185 µM (active) | 19.5 µM (inactive) | 16.5 µM (inactive) | 15.5 µM (inactive) | 18.3 µM (inactive) | 13.1 µM (inactive) | 23.2 µM (inactive) | 18.9 µM (inactive) | 23.6 µM (inactive) | 16.6 µM (inactive) | 15.1 µM (inactive) | 23.8 µM (inactive) | 16.8 µM (inactive) | 15.5 µM (inactive) | 34.8 µM (inactive) | 15.5 µM (inactive) | 
11 | Cc1cccc2c(=O)c3cccc(CC(=O)O)c3oc12 | > 100 µM (inactive) | > 100 µM (inactive) |  | > 100 µM (inactive) | > 100 µM (inactive) | > 100 µM (inactive) | > 100 µM (inactive) | > 100 µM (inactive) | > 100 µM (inactive) | > 100 µM (inactive) | > 100 µM (inactive) | > 100 µM (inactive) | > 100 µM (inactive) | > 100 µM (inactive) | > 100 µM (inactive) | > 100 µM (inactive) | > 100 µM (inactive) | > 100 µM (inactive) | > 100 µM (inactive) | > 100 µM (inactive)
12 | Cc1ccc2nc(-c3ccc(NC(=O)c4ccc(N)cc4)c(S(=O)(=O)O)c3)sc2c1 | > 100 µM (inactive) | > 100 µM (inactive) | > 100 µM (inactive) | > 100 µM (inactive) | > 100 µM (inactive) | > 100 µM (inactive) | > 100 µM (inactive) | > 100 µM (inactive) | > 100 µM (inactive) | > 100 µM (inactive) | > 100 µM (inactive) | > 100 µM (inactive) | > 100 µM (inactive) | > 100 µM (inactive) |  | > 100 µM (inactive) | > 100 µM (inactive) | > 100 µM (inactive) | > 100 µM (inactive) | 
13 | C/C(=N\NC(=S)N(C)C)c1ccccn1 | < 0.0118 µM (active) | < 0.01 µM (active) | 0.161 µM (active) | < 0.01 µM (active) | < 0.01 µM (active) | < 0.01 µM (active) | < 0.01 µM (active) | 0.219 µM (active) | < 0.01 µM (active) | < 0.0156 µM (active) | < 0.01 µM (active) | < 0.01 µM (active) | < 0.01 µM (active) | 0.269 µM (active) | 0.139 µM (active) | < 0.0264 µM (active) | < 0.01 µM (active) | 0.564 µM (active) | < 0.01 µM (active) | 
14 | c1ccc([P+](CCSCCSCC[P+](c2ccccc2)(c2ccccc2)c2ccccc2)(c2ccccc2)c2ccccc2)cc1 | > 100 µM (inactive) |  | > 100 µM (inactive) | > 100 µM (inactive) | > 100 µM (inactive) |  | > 100 µM (inactive) |  | > 100 µM (inactive) | > 100 µM (inactive) | > 100 µM (inactive) | > 100 µM (inactive) | 33 µM (inactive) | > 100 µM (inactive) | > 100 µM (inactive) | > 100 µM (inactive) | > 100 µM (inactive) | > 100 µM (inactive) | 24.7 µM (inactive) | 
15 | O=C(O)c1cc(NCc2cc(O)ccc2O)ccc1O [LAVENDUSTIN C] | 45.3 µM (inactive) | 10.6 µM (inactive) | > 100 µM (inactive) | 49.9 µM (inactive) | > 100 µM (inactive) |  |  |  | > 100 µM (inactive) | > 100 µM (inactive) | > 100 µM (inactive) |  | > 100 µM (inactive) | > 100 µM (inactive) | > 100 µM (inactive) | > 100 µM (inactive) | 35.6 µM (inactive) | > 100 µM (inactive) | > 100 µM (inactive) | 
